Measurements reported in ChEMBL document CHEMBL1201862, “PubChem BioAssay data set” (2004).
Activity calls are given as the source filed them.

How the values were obtained:
Cytochrome P450 2D6 = Cytochrome P450 2D6 (Homo sapiens, UniProt P10635);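 also: CYP2D6 member of a cytochrome P450 panel assay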
[1] = Luminescence Cell-Based Dose Retest to Confirm Inhibitors of Cancer Stem Cells. [Related pubchem assays (depositor defined):AID2717, AID2721]; assay type: functional; settings: Homo sapiens
[2] = target: T1, Heat shock factor protein 1 (Mus musculus, UniProt P38532); assay: enhancement of HSF1-driven luciferase signal – cell-based, NIH3T3, luminescence, dose retest, confirmation (AID 435004); assay type: functional;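 also: stress induced by proteasome inhibitor MG132 added 30 min after compound; luciferase reporter driven by HSF1 response element in NIH3T3 cells; actives raise luminescence as potentiators of the MG132 stress response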
T1 sequence (P38532 whole entry): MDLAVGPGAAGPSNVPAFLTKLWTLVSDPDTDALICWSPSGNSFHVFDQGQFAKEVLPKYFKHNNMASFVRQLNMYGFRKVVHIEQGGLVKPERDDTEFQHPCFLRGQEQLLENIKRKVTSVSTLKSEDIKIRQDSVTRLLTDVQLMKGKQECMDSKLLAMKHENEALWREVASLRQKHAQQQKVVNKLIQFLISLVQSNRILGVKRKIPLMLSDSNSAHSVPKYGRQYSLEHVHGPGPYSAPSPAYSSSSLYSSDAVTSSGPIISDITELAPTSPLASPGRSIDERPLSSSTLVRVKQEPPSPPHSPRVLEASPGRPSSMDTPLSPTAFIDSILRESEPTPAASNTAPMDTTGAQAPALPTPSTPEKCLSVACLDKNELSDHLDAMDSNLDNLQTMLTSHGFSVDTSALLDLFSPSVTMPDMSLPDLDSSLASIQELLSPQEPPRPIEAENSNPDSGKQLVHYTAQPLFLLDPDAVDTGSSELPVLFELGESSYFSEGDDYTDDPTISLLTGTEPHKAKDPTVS

Cytochrome P450 1A2 = target: T2, Cytochrome P450 1A2 (Homo sapiens, UniProt P05177);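 also: PubChem cytochrome P450 panel assay, CYP1A2 panel member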
T2 sequence (P05177 whole entry): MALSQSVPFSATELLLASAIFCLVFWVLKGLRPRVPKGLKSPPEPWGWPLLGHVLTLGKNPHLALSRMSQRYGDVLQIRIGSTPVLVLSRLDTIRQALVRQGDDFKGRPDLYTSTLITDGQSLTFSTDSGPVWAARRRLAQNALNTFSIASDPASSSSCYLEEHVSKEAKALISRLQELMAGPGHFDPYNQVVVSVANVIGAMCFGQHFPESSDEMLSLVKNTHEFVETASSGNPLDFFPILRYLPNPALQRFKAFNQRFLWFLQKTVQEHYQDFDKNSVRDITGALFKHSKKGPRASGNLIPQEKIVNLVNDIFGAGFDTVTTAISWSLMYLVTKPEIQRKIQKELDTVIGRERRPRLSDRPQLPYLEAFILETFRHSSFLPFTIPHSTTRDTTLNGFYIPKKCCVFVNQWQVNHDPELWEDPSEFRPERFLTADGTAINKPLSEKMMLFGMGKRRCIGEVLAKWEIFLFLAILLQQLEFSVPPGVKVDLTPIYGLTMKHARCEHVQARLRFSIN

[3] = alpha-synuclein stem-loop luciferase translation blockers – H4 neuroglioma cells, luminescence, confirmation (AID 1988); assay type: functional, cell-based
[4] = luciferase reporter signal suppression in cells – H4 neuroglioma cells, luminescence, dose response (AID 1990); assay type: functional, cell-based
[5] = Luminescence Cell-Based Dose Response HTS to Identify Inhibitors of 5'UTR Stem-Loop Driven Prion Protein mRNA Translation in H4 Neuroglioblastoma Cells. [Related pubchem assays: 1827 (Project Summary), 1813 (Primary HTS)]; assay type: functional
[6] = target: FAD-linked sulfhydryl oxidase ALR (Homo sapiens, UniProt P55789); assay: ALR-catalysed DTT oxidation blockers – biochemical, H2O2 detection, luminescence, cherry-pick, dose response (AID 493248)
Sequence of FAD-linked sulfhydryl oxidase ALR (P55789 whole entry): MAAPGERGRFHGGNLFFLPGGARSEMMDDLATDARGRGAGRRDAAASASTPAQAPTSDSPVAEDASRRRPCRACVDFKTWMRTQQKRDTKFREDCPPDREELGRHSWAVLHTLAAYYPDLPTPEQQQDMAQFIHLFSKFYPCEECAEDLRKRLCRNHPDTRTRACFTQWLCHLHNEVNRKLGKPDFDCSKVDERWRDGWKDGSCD

cells = assay type: functional
Streptokinase A = target: T3, Streptokinase A (Streptococcus pyogenes serotype M1, UniProt P10520); assay: viability-normalized secreted streptokinase activity reduction – plasminogen activation absorbance, OD405, dose response (AID 1914); assay type: functional, Streptococcus pyogenes M1 GAS;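 also: secreted streptokinase activity via plasminogen activation per viability signal from cell pellet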
T3 sequence (P10520 whole entry): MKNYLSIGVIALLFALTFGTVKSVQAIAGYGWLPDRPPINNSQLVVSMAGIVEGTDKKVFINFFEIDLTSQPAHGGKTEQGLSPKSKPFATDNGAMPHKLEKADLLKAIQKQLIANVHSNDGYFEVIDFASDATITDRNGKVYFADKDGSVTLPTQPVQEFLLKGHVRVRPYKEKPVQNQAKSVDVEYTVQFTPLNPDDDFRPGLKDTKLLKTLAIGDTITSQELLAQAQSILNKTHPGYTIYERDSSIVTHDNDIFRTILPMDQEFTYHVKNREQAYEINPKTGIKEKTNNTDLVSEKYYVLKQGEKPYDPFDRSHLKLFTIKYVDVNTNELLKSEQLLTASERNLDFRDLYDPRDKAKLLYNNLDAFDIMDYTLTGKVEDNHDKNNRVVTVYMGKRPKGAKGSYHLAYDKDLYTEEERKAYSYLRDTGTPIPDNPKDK

Streptococcus = assay: GAS UMAA2166 growth inhibition – luminescence, BacTiterGlo, counter-screen for streptokinase expression inhibitor project, dose response (AID 1915); assay type: functional, organism-based;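 also: potency for reduction of bacterial viability or growth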
[7] = tested on: Streptococcus sp. 'group A'; assay: Streptococcus pyogenes SK(-)GAS viability under kanamycin – luminescence, BacTiterGlo, confirmation, counter-screen for streptokinase expression inhibitor project, dose response (AID 1900); assay type: functional, organism-based
Cytochrome P450 2C19 = Cytochrome P450 2C19 (Homo sapiens, UniProt P33261); assay: Cytochrome panel assay with activity outcomes. Panel member name: p450-cyp2c19 Compounds with AC50 equal or less than 10 uM are considered active; assay type: functional; settings: read-out: AC50
Sequence of Cytochrome P450 2C19 (P33261 whole entry): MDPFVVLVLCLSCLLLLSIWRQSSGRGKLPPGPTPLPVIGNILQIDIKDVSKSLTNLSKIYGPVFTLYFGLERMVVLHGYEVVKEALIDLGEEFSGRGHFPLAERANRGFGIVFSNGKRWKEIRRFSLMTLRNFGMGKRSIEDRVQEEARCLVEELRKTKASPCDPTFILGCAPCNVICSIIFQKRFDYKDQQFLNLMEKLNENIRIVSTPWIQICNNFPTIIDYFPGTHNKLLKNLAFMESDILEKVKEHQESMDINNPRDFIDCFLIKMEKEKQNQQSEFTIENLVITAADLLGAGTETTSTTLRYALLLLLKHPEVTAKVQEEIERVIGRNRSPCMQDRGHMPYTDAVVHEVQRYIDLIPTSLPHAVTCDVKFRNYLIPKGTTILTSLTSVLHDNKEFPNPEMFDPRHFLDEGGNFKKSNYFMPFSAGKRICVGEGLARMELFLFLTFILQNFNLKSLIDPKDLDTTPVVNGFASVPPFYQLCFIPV

Sequence of Cytochrome P450 2D6 (P10635 whole entry): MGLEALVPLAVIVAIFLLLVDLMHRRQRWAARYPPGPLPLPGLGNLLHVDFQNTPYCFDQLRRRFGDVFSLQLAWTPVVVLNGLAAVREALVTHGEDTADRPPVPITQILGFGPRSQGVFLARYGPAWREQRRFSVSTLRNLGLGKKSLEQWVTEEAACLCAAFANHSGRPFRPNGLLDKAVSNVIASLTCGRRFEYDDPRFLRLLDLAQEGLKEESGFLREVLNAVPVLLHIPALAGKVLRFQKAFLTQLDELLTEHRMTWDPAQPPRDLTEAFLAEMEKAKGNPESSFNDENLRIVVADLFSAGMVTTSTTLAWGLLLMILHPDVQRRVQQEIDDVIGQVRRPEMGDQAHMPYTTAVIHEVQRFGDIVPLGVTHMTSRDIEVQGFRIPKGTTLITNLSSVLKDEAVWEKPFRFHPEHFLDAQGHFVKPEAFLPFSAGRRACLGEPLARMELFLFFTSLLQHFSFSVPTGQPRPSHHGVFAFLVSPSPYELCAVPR

## COc1cccc(Cn2c(=O)c(CCc3ccccc3)nc3cnc(N4CCN(C)CC4)nc32)c1
Cytochrome P450 2D6
  AC50: 20 µM (inconclusive)

## O=C(Nc1ccc(Nc2ccccc2)cc1)c1ccccc1
[1]
  AC50: 13.7 µM (active)

## CCOC(=O)NC(=O)/C(C#N)=N/Nc1c(F)cccc1F
[2]
  EC50: > 260 µM (inactive)

## COc1c(OC(C)=O)ccc(/C=C/c2ccc3cccc(OCc4ccccc4)c3n2)c1[N+](=O)[O-]
[1]
  AC50: 1.67 µM (active)

## CN(C)c1ncc2nc(-c3ccc(F)cc3)c(=O)n(C[C@H]3CCCO3)c2n1
Cytochrome P450 2D6
  AC50: 1.26 µM (inconclusive)

## O=C(Nc1cccc(NC(=O)c2ccccc2[N+](=O)[O-])n1)c1ccccc1[N+](=O)[O-]
Cytochrome P450 2D6
  AC50: 20 µM (inconclusive)

## Cc1nn(C(C)C(=O)Nc2ccc(Cl)cn2)c(C)c1[N+](=O)[O-] (configuration not stated)
Cytochrome P450 1A2
  AC50: 12.6 µM (inconclusive)

## c1ccc(C(c2ccccc2)N2CCN(c3ccc4ccccc4n3)CC2)cc1
[3]
  EC50: > 120 µM (not active)
[4]
  EC50: 16.8 µM (active)
[5]
  EC50: > 120 µM (not active)

## Cc1ccc(Nc2c(-c3ccccc3O)nc3cnccn23)cc1
[6]
  AC50: 0.705 µM (active)

## COc1ccc(C(=O)Nc2cccc(/C=C/c3nc(O)c4ccccc4n3)c2)cc1
[1]
  AC50: 3.7 µM (active)

## CC1C/C(=N/NC(=O)c2cccc(F)c2)c2ccc(O)cc2C1 (configuration not stated)
cells
  IC50: 34.6 µM (active)

## Cc1ccc(OCC(=O)N/N=C/c2cn(Cc3ccccc3)c3ccccc23)cc1
[3]
  EC50: 5.86 µM (active)
[4]
  EC50: 9.88 µM (active)
[5]
  EC50: 13.1 µM (active)

## CC(C)(C)OC(=O)[C@H](Cc1ccccc1)NC(=O)c1[nH]cnc1C(=O)Nc1cccc(Cl)c1
Streptokinase A
  EC50: 38.3 µM (active)
[1]
  AC50: 3.36 µM (active)
Streptococcus
  EC50: 21.7 µM (active)
[7]
  EC50: 3.64 µM (active)

## O=C(CC1S/C(=N\CCc2ccccc2)N(/N=C/c2cccs2)C1=O)Nc1ccc(Cl)cc1 (configuration not stated)
[2]
  EC50: > 260 µM (inactive)

## CN(C)C(=O)c1ccc(-c2nccc(N(C)Cc3ccco3)n2)cc1
Cytochrome P450 2C19
  AC50: 25.1 µM (inconclusive)
Cytochrome P450 2D6
  AC50: 25.1 µM (inconclusive)

## COc1ccc(/C=N/Nc2ccccn2)c(OC)c1OC
[6]
  AC50: 0.484 µM (active)

## Cc1cc(C)c(S(=O)(=O)Nc2cccc(/C=C/C(=O)O)c2)c(C)c1
[2]
  EC50: > 260 µM (inactive)

## COC(CNC(=O)C1CCCN(S(=O)(=O)c2c(C)noc2/C=C/c2cccs2)C1)OC (configuration not stated)
[2]
  EC50: 110 µM (active)

## O=C(c1cc2ccccc2o1)N1CCN=C1SCc1cccnc1
[6]
  AC50: 0.095 µM (active)

## CCOC(=O)c1ccc(Nc2nc(-c3cccnc3)nc3ccccc23)cc1
Cytochrome P450 2D6
  AC50: 10 µM (inconclusive)

## CCOC(=O)CCNC(=O)c1ccc2nc(C3CCCCC3)oc2c1
cells
  IC50: 23.8 µM (active)

## Cc1csc(NC(=O)c2cc([N+](=O)[O-])cc([N+](=O)[O-])c2)n1
cells
  IC50: 13.2 µM (active)

## O=[N+]([O-])c1cc(O)c(O)c([N+](=O)[O-])c1 [3,5-DINITROCATECHOL (OR-486)]
Cytochrome P450 1A2
  AC50: 39.8 µM (inconclusive)

## COc1cccc(/C=C2\N=C(SC)SC2=O)c1OC
[2]
  EC50: 241 µM (active)

## CC(=O)c1ccc(-c2ccc([C@H]3[C@@H]4C=CCC[C@@]4(C)C(=O)N3Cc3ccccc3)c(F)c2)cc1
[1]
  AC50: 4.4 µM (active)

## CC(=O)N1CCN=C1SCc1cccc(C(F)(F)F)c1
[6]
  AC50: 7.34 µM (active)

## CCOC(=O)c1c(NC(NC(=O)C(C)C)C(Cl)(Cl)Cl)sc2c1CCC2 (configuration not stated)
[1]
  AC50: 3.39 µM (active)

## COc1ccc(N(CC(=O)Nc2cc(C)ccc2C)S(=O)(=O)c2c(C)noc2C)cc1
[1]
  AC50: 34.5 µM (active)

## CCc1nnc(N/N=C/c2ccc(N3CCC(C)CC3)c([N+](=O)[O-])c2)n1N
cells
  IC50: 20 µM (active)
